Results published in the supplement of paper PMC10627819.

What was measured:
[1] = system: S. aureus DSM 20231; assay: fitness (endpoint OD595 vs no drug) (fraction); higher = more growth
Method in brief: (§1)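 Fitness is computed from the optical density at which cultures reach stationary phase, divided by the robust mean of no-drug control wells. Any value above 1 is set to 1. Cultures started at OD595 0.01 in 384-well plates with TSB, LB Lennox or CY at 37 °C, and OD595 was read every 30 min for 14 h against a first-reading background.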

[2] = system: S. aureus Newman; assay: as above
Method in brief: as §1

[3] = system: S. pneumoniae D39V; assay: as above
Method in brief: as §1

[4] = system: B. subtilis 168; assay: Bliss interaction score (quartile over a dose matrix) (fitness difference); higher = more antagonism (negative = synergy)
Method in brief: (§2)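 Values were capped at 1 after dividing OD595 at stationary-phase entry by the plate's robust no-drug mean. This ratio is fitness, and single-drug fitness was inferred from the combination data. The Bliss score is observed minus product-expected fitness, given as quartiles over technical, biological and donor/recipient replicates.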

[5] = system: S. aureus DSM 20231; assay: as above
Method in brief: as §2

[6] = system: S. aureus Newman; assay: as above
Method in brief: as §2

[7] = system: S. pneumoniae D39V; assay: as above
Method in brief: as §2

[8] = first compound 0.125 µg/mL, partner 0.625 µg/mL
[9] = first compound 0.125 µg/mL, partner 1.25 µg/mL
[10] = first compound 0.125 µg/mL, partner 2.5 µg/mL
[11] = first compound 0.25 µg/mL, partner 0.625 µg/mL
[12] = first compound 0.25 µg/mL, partner 1.25 µg/mL
[13] = first compound 0.25 µg/mL, partner 2.5 µg/mL
[14] = first compound 0.5 µg/mL, partner 0.625 µg/mL
[15] = first compound 0.5 µg/mL, partner 1.25 µg/mL
[16] = first compound 0.5 µg/mL, partner 2.5 µg/mL
[17] = first compound 0.125 µg/mL, partner 0.0156 µg/mL
[18] = first compound 0.125 µg/mL, partner 0.0312 µg/mL
[19] = first compound 0.125 µg/mL, partner 0.0625 µg/mL
[20] = first compound 0.25 µg/mL, partner 0.0156 µg/mL
[21] = first compound 0.25 µg/mL, partner 0.0312 µg/mL
[22] = first compound 0.25 µg/mL, partner 0.0625 µg/mL
[23] = first compound 0.5 µg/mL, partner 0.0156 µg/mL
[24] = first compound 0.5 µg/mL, partner 0.0312 µg/mL
[25] = first compound 0.5 µg/mL, partner 0.0625 µg/mL
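For Bliss interaction score (quartile over a dose matrix) in this document: first quartile when negative (synergy) and third quartile when positive (antagonism).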

Q: CO/N=C(\C(=O)N[C@@H]1C(=O)N2C(C(=O)[O-])=C(C[N+]3(C)CCCC3)CS[C@H]12)c1csc(N)n1 [Cefepime] + Cc1ncc([N+](=O)[O-])n1CCO [Metronidazole] was tested. Which fitness [1, 8] did it give?
A: The fitness was 0.981.

Q: What about the fitness [1, 9] of the same compound?
A: Its fitness is at least 1.

Q: What about the fitness [1, 10] of the same compound?
A: The fitness was at least 1.

Q: And the fitness [1, 11]?
A: The fitness was 0.958.

Q: What about the fitness [1, 12] of the same compound?
A: The fitness was at least 1.

Q: And the fitness [1, 13]?
A: Its fitness is at least 1.

Q: What about the fitness [1, 14] of the same compound?
A: Its fitness is 0.925.

Q: What about the fitness [1, 15] of the same compound?
A: Its fitness is 0.958.

Q: And the fitness [1, 16]?
A: The fitness was 0.928.

Q: And the fitness [2, 8]?
A: The fitness was 0.942.

Q: And the fitness ([2]; first compound 0.125 µg/mL, partner 0.781 µg/mL)?
A: Its fitness is 0.957.

Q: What about the fitness [2, 9] of the same compound?
A: Its fitness is 0.922.

Q: What about the fitness ([2]; first compound 0.125 µg/mL, partner 1.562 µg/mL) of the same compound?
A: The fitness was 0.914.

Q: And the fitness [2, 10]?
A: The fitness was 0.957.

Q: And the fitness ([2]; first compound 0.125 µg/mL, partner 3.124 µg/mL)?
A: Its fitness is 0.924.

Q: What about the fitness [2, 11] of the same compound?
A: Its fitness is 0.855.

Q: And the fitness ([2]; first compound 0.25 µg/mL, partner 0.781 µg/mL)?
A: The fitness was 0.854.

Q: And the fitness [2, 12]?
A: Its fitness is 0.876.

Q: And the fitness ([2]; first compound 0.25 µg/mL, partner 1.562 µg/mL)?
A: The fitness was 0.844.

Q: What about the fitness [2, 13] of the same compound?
A: Its fitness is 0.814.

Q: What about the fitness ([2]; first compound 0.25 µg/mL, partner 3.124 µg/mL) of the same compound?
A: Its fitness is 0.83.

Q: What about the fitness [2, 14] of the same compound?
A: The fitness was 0.799.

Q: And the fitness ([2]; first compound 0.5 µg/mL, partner 0.781 µg/mL)?
A: Its fitness is 0.761.

Q: And the fitness [2, 15]?
A: Its fitness is 0.752.

Q: And the fitness ([2]; first compound 0.5 µg/mL, partner 1.562 µg/mL)?
A: Its fitness is 0.731.

Q: What about the fitness [2, 16] of the same compound?
A: Its fitness is 0.749.

Q: What about the fitness ([2]; first compound 0.5 µg/mL, partner 3.124 µg/mL) of the same compound?
A: Its fitness is 0.764.

Q: What about the fitness ([3]; first compound 0.007 µg/mL, partner 1.25 µg/mL) of the same compound?
A: Its fitness is at least 1.

Q: And the fitness ([3]; first compound 0.007 µg/mL, partner 2.5 µg/mL)?
A: The fitness was at least 1.

Q: What about the fitness ([3]; first compound 0.007 µg/mL, partner 5 µg/mL) of the same compound?
A: Its fitness is at least 1.

Q: What about the fitness ([3]; first compound 0.0078 µg/mL, partner 1.073 µg/mL) of the same compound?
A: The fitness was 0.998.

Q: What about the fitness ([3]; first compound 0.0078 µg/mL, partner 2.145 µg/mL) of the same compound?
A: Its fitness is 0.943.

Q: And the fitness ([3]; first compound 0.0078 µg/mL, partner 4.29 µg/mL)?
A: The fitness was 0.988.

Q: And the fitness ([3]; first compound 0.014 µg/mL, partner 1.25 µg/mL)?
A: Its fitness is at least 1.

Q: What about the fitness ([3]; first compound 0.014 µg/mL, partner 2.5 µg/mL) of the same compound?
A: The fitness was at least 1.

Q: What about the fitness ([3]; first compound 0.014 µg/mL, partner 5 µg/mL) of the same compound?
A: Its fitness is at least 1.

Q: And the fitness ([3]; first compound 0.0155 µg/mL, partner 1.073 µg/mL)?
A: Its fitness is 0.977.

Q: What about the fitness ([3]; first compound 0.0155 µg/mL, partner 4.29 µg/mL) of the same compound?
A: Its fitness is 0.968.

Q: And the fitness ([3]; first compound 0.028 µg/mL, partner 1.25 µg/mL)?
A: The fitness was 0.957.

Q: And the fitness ([3]; first compound 0.028 µg/mL, partner 2.5 µg/mL)?
A: The fitness was 0.964.

Q: What about the fitness ([3]; first compound 0.028 µg/mL, partner 5 µg/mL) of the same compound?
A: Its fitness is 0.912.

Q: What about the fitness ([3]; first compound 0.031 µg/mL, partner 1.073 µg/mL) of the same compound?
A: The fitness was 0.939.

Q: And the fitness ([3]; first compound 0.031 µg/mL, partner 2.145 µg/mL)?
A: Its fitness is 0.9.

Q: What about the fitness ([3]; first compound 0.031 µg/mL, partner 4.29 µg/mL) of the same compound?
A: Its fitness is 0.942.

Q: And the Bliss interaction score [4]?
A: Its Bliss interaction score is 0.0894.

Q: What about the Bliss interaction score [5] of the same compound?
A: The Bliss interaction score was 0.047.

Q: What about the Bliss interaction score [6] of the same compound?
A: Its Bliss interaction score is -0.0502.

Q: What about the Bliss interaction score [7] of the same compound?
A: Its Bliss interaction score is 0.0181.

Q: For CO/N=C(\C(=O)N[C@@H]1C(=O)N2C(C(=O)[O-])=C(C[N+]3(C)CCCC3)CS[C@H]12)c1csc(N)n1 [Cefepime] + Cc1onc(-c2ccccc2)c1C(=O)N[C@@H]1C(=O)N2[C@@H]1SC(C)(C)[C@@H]2C(=O)O [Oxacillin], which fitness [1, 17] is on record?
A: Its fitness is 0.75.

Q: What about the fitness [1, 18] of the same compound?
A: The fitness was 0.641.

Q: And the fitness [1, 19]?
A: Its fitness is 0.507.

Q: What about the fitness [1, 20] of the same compound?
A: The fitness was 0.826.

Q: And the fitness [1, 21]?
A: Its fitness is 0.634.

Q: And the fitness [1, 22]?
A: The fitness was 0.578.

Q: And the fitness [1, 23]?
A: Its fitness is 0.624.

Q: What about the fitness [1, 24] of the same compound?
A: The fitness was 0.565.

Q: And the fitness [1, 25]?
A: The fitness was 0.53.

Q: And the fitness [2, 17]?
A: Its fitness is 0.828.

Q: What about the fitness [2, 18] of the same compound?
A: The fitness was 0.796.

Q: And the fitness [2, 19]?
A: The fitness was 0.71.

Q: And the fitness [2, 20]?
A: The fitness was 0.804.

Q: And the fitness [2, 21]?
A: Its fitness is 0.753.

Q: And the fitness [2, 22]?
A: The fitness was 0.682.

Q: And the fitness [2, 23]?
A: The fitness was 0.768.

Q: What about the fitness [2, 24] of the same compound?
A: The fitness was 0.684.

Q: What about the fitness [2, 25] of the same compound?
A: Its fitness is 0.667.

Q: What about the fitness ([3]; first compound 0.007 µg/mL, partner 0.005 µg/mL) of the same compound?
A: Its fitness is 0.997.

Q: What about the fitness ([3]; first compound 0.007 µg/mL, partner 0.01 µg/mL) of the same compound?
A: The fitness was at least 1.

Q: What about the fitness ([3]; first compound 0.007 µg/mL, partner 0.02 µg/mL) of the same compound?
A: Its fitness is 0.986.

Q: What about the fitness ([3]; first compound 0.0078 µg/mL, partner 0.01 µg/mL) of the same compound?
A: The fitness was 0.95.

Q: What about the fitness ([3]; first compound 0.0078 µg/mL, partner 0.02 µg/mL) of the same compound?
A: The fitness was 0.825.

Q: And the fitness ([3]; first compound 0.0078 µg/mL, partner 0.04 µg/mL)?
A: Its fitness is 0.254.

Q: What about the fitness ([3]; first compound 0.014 µg/mL, partner 0.005 µg/mL) of the same compound?
A: The fitness was at least 1.

Q: What about the fitness ([3]; first compound 0.014 µg/mL, partner 0.01 µg/mL) of the same compound?
A: Its fitness is at least 1.

Q: What about the fitness ([3]; first compound 0.014 µg/mL, partner 0.02 µg/mL) of the same compound?
A: The fitness was 1.

Q: What about the fitness ([3]; first compound 0.0155 µg/mL, partner 0.01 µg/mL) of the same compound?
A: Its fitness is 0.86.

Q: What about the fitness ([3]; first compound 0.0155 µg/mL, partner 0.04 µg/mL) of the same compound?
A: Its fitness is 0.153.

Q: What about the fitness ([3]; first compound 0.028 µg/mL, partner 0.005 µg/mL) of the same compound?
A: The fitness was 0.955.

Q: And the fitness ([3]; first compound 0.028 µg/mL, partner 0.01 µg/mL)?
A: The fitness was 0.942.

Q: What about the fitness ([3]; first compound 0.028 µg/mL, partner 0.02 µg/mL) of the same compound?
A: The fitness was 0.847.

Q: What about the fitness ([3]; first compound 0.031 µg/mL, partner 0.04 µg/mL) of the same compound?
A: Its fitness is 0.0453.

Q: And the Bliss interaction score [4]?
A: The Bliss interaction score was -0.0609.

Q: And the Bliss interaction score [5]?
A: Its Bliss interaction score is -0.054.

Q: And the Bliss interaction score [6]?
A: Its Bliss interaction score is 0.11.

Q: What about the Bliss interaction score [7] of the same compound?
A: The Bliss interaction score was -0.138.
